Tests used:
[1] = Solubility of the raw material; format: physicochemical; settings: needs to be pre-dissolved at 80°C in propylene glycol
Propionibacterium acnes = settings: cited from earlier work; for antibacterial / antimicrobial activity against Propionibacterium Acnes: raw material description, PCA ethyl cocoyl arginate at a pH lower than 7

Molecule | solubility [1] | effectiveness as antibacterial against Propionibacterium acnes (Propionibacterium acnes; compared with other surfactants, US2008/0070986) | antibacterial / antimicrobial activity against Propionibacterium Acnes (Propionibacterium acnes)
CCCCCCCCCCCC(=O)N[C@@H](CCCNC(=N)N)C(=O)O [Lauroyl arginine] | poorly soluble | – | –
Laureth-7 citrate | – | 2 magnitude orders less effective | known antibacterial properties
PCA ethyl cocoyl arginate | – | – | antimicrobial activity

Source: patent EP3505218B1, “A GENTLE DETERGENT COMPOSITION FOR GREASY AND ACNEIC SKINS” (Unifarco S.p.A., priority 2017, dated 2019)
